Laboratory results reported in US7947703B2, “Phenanthridinium derivatives as DNA binding agents” (University Court of the University of Glasgow, priority 2003, dated 2011).
Marks after values point to notes of the source that are not given here.

Tests used:
[1] = system: human ovarian tumour cell line A2780; assay: growth (tetrazolium dye-based microtitration) cytotoxicity assay, A2780; assay type: cell-based; details: for IC50: cisplatin-sensitive line, 24 hours drug exposure, 3 day recovery, mean±SEM of triplicate plates; for cytotoxicity (in words): overall statement across A2780, A2780/cp70 and MCP1
Description: (§1) Compounds were tested in a growth assay with a 24 hours drug exposure and a 3 day recovery period. Cell lines used were human ovarian tumour cell line A2780 and 2 Cisplatin resistant derivatives cell lines A27080/cp70 and MCP1. IC50 is the concentration of drug required to reduce the surviving cell number to 50% of that of the control untreated cells. Results are from one experiment and are the mean±SEM of the triplicate plates.
(§2) DIP cytotoxicity was determined by a tetrazolium dye-based microtitration assay. DNA affinity measurements of DIPs were undertaken using Isothermal Titration Calorimetry (ITC).

[2] = system: Cisplatin resistant cell line A2780/cp70; assay: growth (tetrazolium dye-based microtitration) cytotoxicity assay, A2780/cp70; assay type: cell-based, human; details: for IC50: cisplatin-resistant line, 24 hours drug exposure, 3 day recovery, mean±SEM of triplicate plates; for RF1: rapport of the IC50 between A2780 and A2780/cp70, the lower RF the better
Description: as §1, §2

[3] = system: Cisplatin resistant cell line MCP1; assay: growth (tetrazolium dye-based microtitration) cytotoxicity assay, MCP1; assay type: cell-based, human; details: for IC50: cisplatin-resistant line, 24 hours drug exposure, 3 day recovery, mean±SEM of triplicate plates; for RF2: rapport of the IC50 between A2780 and MCP1, the lower RF the better
Description: as §1, §2

[4] = system: Salmon DNA; assay: DNA affinity by Isothermal Titration Calorimetry (ITC), Salmon DNA; assay type: binding
Description: as §2

[5] = system: Calf DNA; assay: DNA affinity by Isothermal Titration Calorimetry (ITC), Calf DNA; assay type: binding
Description: as §2

SMILES	IC50 ([1]; Homo sapiens, A2780) [nM]	IC50 ([2]; Homo sapiens, A2780/CP70) [nM]	RF1 [2]	IC50 ([3]; Homo sapiens) [nM]	RF2 [3]	Ka Salmon DNA [4]	Ka Calf DNA [5]	melting point [°C]	cytotoxicity (in words) [1]	IC50 [1] [nM]	IC50 [2] [nM]	IC50 [3] [nM]
COc1ccc([C@@H](C)N2CC[n+]3c2c2ccccc2c2ccccc23)cc1 [AP6-96, 1-[1-(4-Methoxy-phenyl)-ethyl]-2,3-dihydro-1H-imidazo[1,2-f]phenanthridin-4-ylium bromide]	1030 ± 60	1150 ± 70	1.1	530 ± 40	0.5	5.17 ± 1948 M^−1 (10^4)	4.14 ± 2685 M^−1 (10^4)					
[Br-].c1ccc2c(c1)c[n+](CCN1CCCCC1)c1ccccc21								167 to 168				
CCc1ccc(N2CC[n+]3c2c2ccccc2c2ccccc23)cc1.[Br-] [LS2-11]	1540 ± 120	1250 ± 140	0.8	1110 ± 160	0.7							
[Br-].c1ccc(CN2CC[n+]3c2c2ccccc2c2ccccc23)cc1 [AP9-45]	2320 ± 330	2260 ± 230	1.0	1290 ± 110	0.6							
[Br-].c1ccc(C(CCN2CC[n+]3c2c2ccccc2c2ccccc23)c2ccccc2)cc1 [LS2-10]	2060 ± 340	1730 ± 120	0.8	2030 ± 310	1							
[Br-].c1ccc2c(c1)c[n+](CCN1CCCCC1)c1ccccc21 [AP4-20]	9770 ± 1040	16500 ± 800	1.7	6300 ± 90	0.6							
CCCN1CC[n+]2c1c1ccccc1c1ccccc12 [AP10-22, 1-Propyl-2,3-dihydro-1H-imidazo[1,2-f]phenanthridin-4-ylium bromide]	6710 ± 860	5110 ± 190	0.8	2860 ± 320	0.4	3.11 ± 2203 M^−1 (10^4)	3.67 ± 1310 M^−1 (10^4)		the least active of all the alkyl DIP derivatives			
[Br-].[Br-].c1ccc2c(c1)c1[n+](c3ccccc23)CCN1CCN1CCN(CCN2CC[n+]3c2c2ccccc2c2ccccc23)CC1 [AP9-5]	18300 ± 2800	5650 ± 200	0.3	3940 ± 320	0.2							
CC[n+]1c(-c2ccccc2)c2cc(N)ccc2c2ccc(N)cc21.[Br-] [EtBr, ethidium bromide, reference compound]	300 ± 39	658 ± 118	2.2	450 ± 8	1.5	12.9 ± 4533 M^−1 (10^4)	9.31 ± 3353 M^−1 (10^4)					
Br.Br.c1ccc2c(c1)c[n+](CCN1CCN(CC[n+]3cc4ccccc4c4ccccc43)CC1)c1ccccc21 [AP4-48]	18400 ± 1230	16800 ± 540	0.9	11700 ± 1510	0.6							
Br.Br.Br.Br.c1ccc2c(c1)c1[n+](c3ccccc23)CCN1CC[N+]12CC[N+](CCN3CC[n+]4c3c3ccccc3c3ccccc34)(CC1)CC2 [AP11-36]	2340 ± 250	3400 ± 230	1.5	3070 ± 520	1.3							
O=C(CN1CC[n+]2c1c1ccccc1c1ccccc12)N1CCN(C(=O)CN2CC[n+]3c2c2ccccc2c2ccccc23)CC1.[Br-].[Br-] [AP8-66]	11700 ± 1100	15600 ± 2100	1.3	6840 ± 890	0.6							
COC(=O)CN1CC[n+]2c1c1ccccc1c1ccccc12.[Br-] [LS1-8]	48400 ± 8500	54900 ± 3400	1.1	33000 ± 1600	0.7				moderate activity			
N.N.[Cl][Pt][Cl] [Cisplatin, reference compound]			5.8		1.7					250 ± 20	1460 ± 40	430 ± 60
C[C@H](CO)N1CC[n+]2c1c1ccccc1c1ccccc12.[Br-] [LS1-52]	2860 ± 370	8430 ± 370	3	4770 ± 90	1.7	1.73 ± 989.3 M^−1 (10^4)	1.42 ± 785 M^−1 (10^4)					
